For twelve compounds, TGI and GI50 results are on record in PubChem BioAssay (NCI).

Each structure is given as a SMILES string.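 96-well plates; 48 h exposure; 5 concentrations. Endpoints by linear interpolation between flanking doses. Not reached: highest tested concentration assigned. At the GI50, growth is halved. The concentration for full growth arrest is given as TGI.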

Holding throughout (test): growth of human tumour cells (NCI), 48 h
The test system of experiment [1] is OVCAR-3 ovarian.
For experiment [2], the system named is NCI-H23 lung.
Experiment [3] has as its system SN12C renal.
The test system of experiment [4] is UO-31 renal.
Experiment [5] concerns SF-268 CNS.
Experiment [6] concerns IGROV1 ovarian.
The subject of experiment [7] is A498 renal.
The test system of experiment [8] is HL-60(TB) leukemia.
Experiment [9] has as its system A549 NSCLC.
The subject of experiment [10] is CCRF-CEM leukemia.

`CCOc1ccc2c(ccc(/C=C\c3cc(C)c4cccnc4c3O)[n+]2C)c1`: the TGI in experiment [1] was found to be 2 µM; in [2] it was 43.5 µM; in experiment [3], 15.5 µM; in [4] it was 35.1 µM; in experiment [5] it was 28.3 µM; in [6], 21.1 µM. For the same compound, the TGI in experiment [7] came out at 9.1 µM; in experiment [8] it was 1.05 µM; in experiment [9], 26.4 µM.

For `COc1cc2c3c(n(CCN(C)C)c(=O)c2cc1OC)-c1cc2c(cc1C3=O)OCO2`, the GI50 in experiment [1] was 8.31 µM; in experiment [2] it was 0.137 µM; in experiment [10], 0.294 µM; in [3], 4.38 µM; in experiment [4], 9.3 µM; in experiment [5], 0.677 µM. Moreover, the GI50 in [6] is 18.6 µM; in experiment [7] it was 15 µM; in experiment [8] it was 1.02 µM; in [9] it was 0.799 µM. The TGI was 38.4 µM in [1]; over 100 µM in [2]; 1.61 µM in experiment [10]; over 100 µM in [3]; over 100 µM in experiment [4]; over 100 µM in [5]. In addition, the TGI in experiment [6] was over 100 µM; in experiment [7], 87.1 µM; in experiment [8] it was over 35.8 µM; in experiment [9] it was over 100 µM.

Regarding `O=C(O)c1cc(=O)[nH]c(=S)[nH]1`, the TGI in experiment [1], in experiment [2], in experiment [10], in experiment [3], in experiment [4] and in experiment [5] was over 100 µM throughout. For the same compound, the TGI in experiment [6], in experiment [7], in experiment [8] and in experiment [9] was over 100 µM in each case.

`CCCCN(CCCC)CCCCNc1c(C)cnc2cc(Cl)ccc12`: the TGI was over 100 µM in [1]; over 100 µM in [2]; over 100 µM in [10]; over 100 µM in [3]; 25.1 µM in experiment [4]; 85.3 µM in experiment [5]. For the same compound, the TGI in experiment [7] was 86.5 µM; in [9] it was over 100 µM.

Regarding `Cc1ccc(S(=O)(=O)Oc2cc(S(=O)(=O)O)cc3cc(S(=O)(=O)O)cc(N)c23)cc1`, the TGI in [1], in experiment [2], in [10], in [3], in [4] and in experiment [5] was over 100 µM each time. The TGI in [6], in experiment [7], in [8] and in [9] was over 100 µM throughout.

Consider `c1ccc2c(c1)nc1n2CSC1`, for which the TGI in experiment [1], in experiment [2], in [10], in [3], in experiment [4] and in experiment [5] was over 100 µM in each case. For the same compound, the TGI in experiment [6], in [7] and in experiment [8] was over 100 µM each time.

Turning to `O=C(Nc1ccc(Cl)cc1)/C(Cc1cccc[n+]1[O-])=N\Nc1ccc([N+](=O)[O-])cc1[N+](=O)[O-]`, the TGI in experiment [1], in experiment [2], in experiment [10], in experiment [3], in [4] and in experiment [5] was over 100 µM each time. In addition, the TGI in experiment [6], in [7], in experiment [8] and in experiment [9] was over 100 µM throughout.

Regarding `[C-]#[O+].[Cl][Sn]([Cl])[Cl].[Cl][Sn]([Cl])[Cl].[Pt].c1ccncc1`, the TGI in experiment [1], in experiment [2], in [10], in [3], in [4] and in experiment [5] was over 100 µM throughout. Besides, the TGI in experiment [6] is over 100 µM; in experiment [7] it was over 100 µM; in [8], over 74 µM; in [9] it was over 100 µM.

In the case of `CCN(CC)CCCC(Nc1c2ccc(Cl)cc2nc2ccc(OC)cc12)c1ccc(F)cc1` (stereo unspecified), the GI50 is 2.16 µM in experiment [1]; 2.56 µM in [2]; 2.4 µM in experiment [10]; 2.03 µM in experiment [3]; 1.56 µM in [4]; 2.28 µM in experiment [5]. For the same compound, the GI50 was 3.15 µM in [6], 7.37 µM in experiment [7], 1.91 µM in [8] and 2.44 µM in [9]. The TGI in experiment [1] stood at 4.44 µM; in [2] it was 7.9 µM; in experiment [10], 6.49 µM; in [3] it was 4.68 µM; in experiment [4], 3.15 µM; in [5], 5.33 µM. The TGI amounted to 9.06 µM in [6], 21.4 µM in experiment [7], 4.02 µM in experiment [8] and 5.99 µM in experiment [9].

`CN1C2C=C(c3ccccc3)CC1CC2` (stereo unspecified): the TGI in experiment [1], in experiment [2], in experiment [10], in experiment [3], in experiment [4] and in [5] was over 100 µM throughout. In addition, the TGI in experiment [6], in [7], in experiment [8] and in [9] was over 100 µM each time.

With `O=C1CN2C(Cl)(Cl)C2(c2ccccc2)c2cc(Cl)ccc2N1CC(F)(F)F` (stereo unspecified), the TGI in experiment [1] is 39 µM; in experiment [2] it was 70.1 µM; in experiment [10], 42.3 µM; in experiment [3], 30.6 µM; in [4], over 100 µM; in experiment [5], over 100 µM. For the same compound, in experiment [6], the TGI was 73.7 µM.

As for `CC1=C[C@]2(CC(C)C3C(CC4(C)C5CCC6C(C)(C)C(=O)CC[C@@]67C[C@@]57CC[C@]34C)O2)OC1=O` (stereo partly specified), the TGI in experiment [2], in experiment [10], in experiment [3], in experiment [5], in experiment [6] and in experiment [7] was over 100 µM each time. For the same compound, the TGI in experiment [8] and in experiment [9] was over 100 µM in each case.
